Test results reported in US4996211A, “Substituted dibenzocycloheptenimines” (Merck Sharp & Dohme Ltd., priority 1987, dated 1991).
Counter-ions that a name gives are not always drawn.

Tested on: tonic seizures induced by N-methyl-DL-aspartic acid (NMDLA)
Assay: Antagonism of NMDLA-induced tonic seizures in mice
Type: in vivo, mouse (male Swiss-Webster)
Conditions: Mus musculus, iv; i.v. 15 min before s.c. NMDLA (500 mg/kg); groups of 8 mice, observed 30 min; probit analysis
Protocol: The compounds useful in this invention bind with a high affinity and in a reversible and saturable manner to membranes from rat brain cortex. In addition these compounds potently and selectively block responses to NMDA in a brain slice from rat cortex, and antagonise NMDA-induced seizures in the mouse.
Compounds of the invention were examined for their ability to antagonise tonic seizures induced by N-methyl-DL-aspartic acid (NMDLA). Groups of 8 male Swiss-Webster mice (25-30 g) were injected intravenously with the test compound at various doses, 15 min before s.c. administration of NMDLA (500 mg/kg). […] ED50 values for the antagonism of the NMDLA induced tonic seizures were determined using probit analysis.

Compound	ED50 [mg/kg]
CC12NC(Cc3ccc(-c4ccccc4)cc31)c1ccccc12 (stereo not shown) [Example 6, 5-Methyl-3-phenyl-10,11-dihydro-5H-dibenzo-[a,d]cyclohepten-5,10-imine hydrochloride]	< 10
CC12NC(Cc3ccc(CO)cc31)c1ccccc12 (stereo not shown) [Example 12, 3-HYdroxymethyl-5-methyl-10,11-dihydro-5H-dibenzo-[a,d]cyclohepten-5,10-imine]	< 10
Cc1ccc2c(c1)C1(C)NC(C2)c2ccccc21 (stereo not shown) [Example 2, 3.5-Dimethyl-10,11-dihYdro-5H-dibenzo[a,d]cyclohepten-5,10-imine]	< 10
Cc1ccc2c(c1)C1(C)NC2Cc2ccccc21 (stereo not shown) [Example 1, 5,7-Dimethyl-10.11-dihydro-5H-dibenzo[a,d]cyclohepten-5,10-imine]	< 10
